Patent publication US9839629B2, “Inhibitors of the renal outer medullary potassium channel” (Merck Sharp & Dohme Corp., priority 2013, dated 2017)

biological target: T1, ROMK (Kir1.1) channel (Homo sapiens, UniProt P48048); assay: Thallium Flux Assay; format: cell-based
T1 sequence (P48048 1-391): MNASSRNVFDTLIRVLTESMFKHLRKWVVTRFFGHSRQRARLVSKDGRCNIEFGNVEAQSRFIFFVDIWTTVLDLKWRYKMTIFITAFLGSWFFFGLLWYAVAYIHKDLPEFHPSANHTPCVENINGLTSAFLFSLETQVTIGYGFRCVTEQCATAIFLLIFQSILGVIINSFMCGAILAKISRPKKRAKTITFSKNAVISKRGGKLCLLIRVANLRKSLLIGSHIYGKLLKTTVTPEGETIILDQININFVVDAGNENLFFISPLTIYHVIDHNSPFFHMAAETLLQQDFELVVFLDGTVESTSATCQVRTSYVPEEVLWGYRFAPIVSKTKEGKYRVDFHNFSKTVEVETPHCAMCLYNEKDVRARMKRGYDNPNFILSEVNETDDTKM
Procedure: A Thallium Flux Assay was performed on each of the final product compounds in the Examples. When the final product of an Example was an HCl salt, the salt was run in the Assay. This assay has been described previously; see, e.g., PCT Published Application WO 2013/062900.

SMILES | IC50
Cc1c([C@@H](O)CN2CCC3(CC2)CCN(c2c(C4CC4)c(=O)c2=O)CC3)ccc2c1COC2=O [Example 80, (R)-3-cyclopropyl-4-(9-(2-hydroxy-2-(4-methyl-1-oxo-1,3-dihydroisobenzofuran-5-yl)ethyl)-3,9-diazaspiro[5.5]undecan-3-yl)cyclobut-3-ene-1,2-dione] | 141 nM
C[C@H]1Cc2cc([C@H](O)CN3CCC4(CC3)CCN(C3=CC(=O)OC3)CC4)ccc2C(=O)O1 [Example 12, (S)-6-((S)-1-hydroxy-2-(9-(5-oxo-2,5-dihydrofuran-3-yl)-3,9-diazaspiro[5.5]undecan-3-yl)ethyl)-3-methylisochroman-1-one] | 685 nM
CC1=C(N2CCC3(CCN(C[C@@H](O)c4cccc(-n5cnnn5)n4)CC3)CC2)COC1=O [Example 6B, (R)-4-(9-(2-(6-(1H-tetrazol-1-yl)pyridin-2-yl)-2-hydroxyethyl)-3,9-diazaspiro[5.5]undecan-3-yl)-3-methylfuran-2(5H)-one] | 20 nM
O=C1C=C(N2CCC3(CCN(C[C@@H](O)c4ccc(-n5cnnn5)nc4)CC3)CC2)CO1 [Example 19, (S)-4-(9-(2-(6-(1H-tetrazol-1-yl)pyridin-3-yl)-2-hydroxyethyl)-3,9-diazaspiro[5.5]undecan-3-yl)furan-2(5H)-one] | 74 nM
Cc1c([C@@H](O)CN2CCC3(CC2)CCN(C2=C(F)C(=O)OC2)CC3)ccc2c1COC2=O [Example 38, (R)-5-(2-(9-(4-fluoro-5-oxo-2,5-dihydrofuran-3-yl)-3,9-diazaspiro[5.5]undecan-3-yl)-1-hydroxyethyl)-4-methylisobenzofuran-1(3H)-one] | 7 nM
Cc1c([C@@H](O)CN2CCC3(CC2)CCN(C2=C(c4ccccc4)C(=O)OC2)CC3)ccc2c1COC2=O [Example 41, (R)-5-(1-hydroxy-2-(9-(5-oxo-4-phenyl-2,5-dihydrofuran-3-yl)-3,9-diazaspiro[5.5]undecan-3-yl)ethyl)-4-methylisobenzofuran-1(3H)-one] | 168 nM
Cc1nc(-n2cnnn2)ccc1[C@H](O)CN1CCC2(CC1)CCN(C1=CC(=O)CC1)CC2 [Example 71, (S)-3-(9-(2-hydroxy-2-(2-methyl-6-(1H-tetrazol-1-yl)pyridin-3-yl)ethyl)-3,9-diazaspiro[5.5]undecan-3-yl)cyclopent-2-enone] | 243 nM
CCc1c(N2CCC3(CCN(C[C@H](O)c4ccc5c(c4C)COC5=O)CC3)CC2)c(=O)c1=O [Example 79, (R)-3-ethyl-4-(9-(2-hydroxy-2-(4-methyl-1-oxo-1,3-dihydroisobenzofuran-5-yl)ethyl)-3,9-diazaspiro[5.5]undecan-3-yl)cyclobut-3-ene-1,2-dione] | 110 nM
CC1=C(N2CCC3(CCN(C[C@@H](O)c4ccc(-n5cnnn5)nc4)CC3)CC2)COC1=O [Example 48, (S)-4-(9-(2-(6-(1H-tetrazol-1-yl)pyridin-3-yl)-2-hydroxyethyl)-3,9-diazaspiro[5.5]undecan-3-yl)-3-methylfuran-2(5H)-one] | 19 nM
CC1=C(N2CCC3(CCN(C[C@@H](O)c4ccc(-n5cnnn5)cn4)CC3)CC2)COC1=O [Example 52, (R)-4-(9-(2-(5-(1H-tetrazol-1-yl)pyridin-2-yl)-2-hydroxyethyl)-3,9-diazaspiro[5.5]undecan-3-yl)-3-methylfuran-2(5H)-one] | 37 nM
O=C1C=C(N2CCC3(CCN(C[C@H](O)c4ccc(-n5cnnn5)cc4F)CC3)CC2)CO1 [Example 22, (R)-4-(9-(2-(2-fluoro-4-(1H-tetrazol-1-yl)phenyl)-2-hydroxyethyl)-3,9-diazaspiro[5.5]undecan-3-yl)furan-2(5H)-one] | 17 nM
CC1=C(N2CCC3(CCN(C[C@@H](O)c4cncc(-n5cnnn5)c4)CC3)CC2)COC1=O [Example 64, (S)-4-(9-(2-(5-(1H-tetrazol-1-yl)pyridin-3-yl)-2-hydroxyethyl)-3,9-diazaspiro[5.5]undecan-3-yl)-3-methylfuran-2(5H)-one] | 117 nM

Now from value to compound:

IC50 | SMILES
16 nM | O=C1C=C(N2CCC3(CCN(C[C@H](O)c4ccc(-n5cnnn5)nc4)CC3)CC2)CO1 [Example 18, (R)-4-(9-(2-(6-(1H-tetrazol-1-yl)pyridin-3-yl)-2-hydroxyethyl)-3,9-diazaspiro[5.5]undecan-3-yl)furan-2(5H)-one]
16 nM | CC1=C(N2CCC3(CCN(C[C@H](O)c4ccc(-n5cnnn5)nc4C)CC3)CC2)COC1=O [Example 45, (R)-4-(9-(2-hydroxy-2-(2-methyl-6-(1H-tetrazol-1-yl)pyridin-3-yl)ethyl)-3,9-diazaspiro[5.5]undecan-3-yl)-3-methylfuran-2(5H)-one]
596 nM | C[C@@H]1Cc2cc(C(O)CN3CCC4(CC3)CCN(C3=CC(=O)OC3)CC4)ccc2C(=O)O1 (stereo partly drawn) [Example 10, (3R)-6-(1-hydroxy-2-(9-(5-oxo-2,5-dihydrofuran-3-yl)-3,9-diazaspiro[5.5]undecan-3-yl)ethyl)-3-methylisochroman-1-one]
196 nM | CC1=C(N2CCC3(CCN(C[C@H](O)c4cncc(-n5cnnn5)c4)CC3)CC2)COC1=O [Example 63, (R)-4-(9-(2-(5-(1H-tetrazol-1-yl)pyridin-3-yl)-2-hydroxyethyl)-3,9-diazaspiro[5.5]undecan-3-yl)-3-methylfuran-2(5H)-one]
115 nM | CC1=C(N2CCC3(CCN(CC(O)c4ccc(Br)cc4)CC3)CC2)COC1=O (stereo not shown) [Example 36, 4-(9-(2-(4-bromophenyl)-2-hydroxyethyl)-3,9-diazaspiro[5.5]undecan-3-yl)-3-methylfuran-2(5H)-one]
31 nM | Cc1c(CCN2CCC3(CC2)CCN(C2=CC(=O)OC2)CC3)ccc2c1COC2=O [Example 2, 4-methyl-5-(2-(9-(5-oxo-2,5-dihydrofuran-3-yl)-3,9-diazaspiro[5.5]undecan-3-yl)ethyl)isobenzofuran-1(3H)-one]
275 nM | CC1=C(N2CCC3(CCN(C[C@H](O)c4ccc5c(c4C)COC5=O)CC3)[C@@H](F)C2)COC1=O [Example 34, 5-((R)-2-((R)-7-fluoro-9-(4-methyl-5-oxo-2,5-dihydrofuran-3-yl)-3,9-diazaspiro[5.5]undecan-3-yl)-1-hydroxyethyl)-4-methylisobenzofuran-1(3H)-one]
146 nM | Cc1c([C@@H](O)CN2CCC3(CC2)CCN(C2=CC(=O)OCC2)CC3)ccc2c1COC2=O [Example 93, 5-{(1R)-1-hydroxy-2-[9-(6-oxo-3,6-dihydro-2H-pyran-4-yl)-3,9-diazaspiro[5.5]undec-3-yl]ethyl}-4-methyl-2-benzofuran-1(3H)-one]
171 nM | O=C1C=C(N2CCC3(CCN(C[C@H](O)c4ccc(-n5cnnn5)nc4)CC3)OC2=O)CO1 [Example 30, (R)-9-(2-(6-(1H-tetrazol-1-yl)pyridin-3-yl)-2-hydroxyethyl)-3-(5-oxo-2,5-dihydrofuran-3-yl)-1-oxa-3,9-diazaspiro[5.5]undecan-2-one]
16 nM | Cc1nc(-n2cnnn2)ccc1[C@@H](O)CN1CCC2(CC1)CCN(C1=C(C3CC3)C(=O)OC1)CC2 (stereo in doubt) [Example 43, 3-cyclopropyl-4-(9-(2-hydroxy-2-(2-methyl-6-(1H-tetrazol-1-yl)pyridin-3-yl)ethyl)-3,9-diazaspiro[5.5]undecan-3-yl)furan-2(5H)-one]
